According to US5239084A, “Substituted aminoalkyl biphenyl compounds” (Hoffmann-La Roche Inc., priority 1990, dated 1993):
Counter-ions that a name gives are not always drawn.

Each molecule was assayed against T1, 2,3-epoxysqualene-lanosterol cyclase (Candida albicans, UniProt Q04782) (assay: inhibition of 2,3-epoxysqualene-lanosterol cyclase from Candida albicans (cell-free extract, 14C-squalene epoxide)). Details: not given.
T1 construct: there was obtained a cell-free extract (CFE) as the supernatant; endogenous in cells; host or cells: Candida albicans culture, protoplasts ruptured, cell-free extract (10000 g supernatant)
T1 sequence (Q04782 whole entry): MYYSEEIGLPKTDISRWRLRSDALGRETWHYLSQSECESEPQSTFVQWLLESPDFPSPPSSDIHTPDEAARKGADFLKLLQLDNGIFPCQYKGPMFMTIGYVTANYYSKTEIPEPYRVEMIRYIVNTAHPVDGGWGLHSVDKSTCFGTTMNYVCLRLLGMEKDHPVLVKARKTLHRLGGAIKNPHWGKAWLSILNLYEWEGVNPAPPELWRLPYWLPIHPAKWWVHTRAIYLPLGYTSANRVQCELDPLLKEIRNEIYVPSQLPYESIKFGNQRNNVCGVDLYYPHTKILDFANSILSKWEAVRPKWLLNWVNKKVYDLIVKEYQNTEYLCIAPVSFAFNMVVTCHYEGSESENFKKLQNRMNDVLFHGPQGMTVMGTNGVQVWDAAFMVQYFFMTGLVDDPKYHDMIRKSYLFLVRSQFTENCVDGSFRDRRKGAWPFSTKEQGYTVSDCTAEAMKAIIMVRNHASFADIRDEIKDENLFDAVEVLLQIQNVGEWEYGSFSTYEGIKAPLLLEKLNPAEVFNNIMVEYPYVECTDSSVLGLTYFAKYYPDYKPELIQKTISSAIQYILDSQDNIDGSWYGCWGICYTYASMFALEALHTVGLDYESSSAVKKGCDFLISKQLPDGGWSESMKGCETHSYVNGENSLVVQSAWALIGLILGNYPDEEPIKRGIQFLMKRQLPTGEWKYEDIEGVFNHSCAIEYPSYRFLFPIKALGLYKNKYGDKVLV
Type: biochemical
Molecule `C=CCN(C)Cc1ccc(-c2ccc(C(=O)c3ccc4ccccc4c3)cc2)cc1` [Compound 23, 4'-[(Allylmethylamino)methyl]-4-biphenylyl 2-naphthyl ketone hydrochloride] has an IC50 of 409 nM. `C=CCN(C)Cc1ccc(-c2ccc(C(=O)c3ccc(C#N)cc3)cc2)cc1` [Compound 19, p-[[4'-[(Allylmethylamino)methyl]-4-biphenylyl]carbonyl]-benzonitrile hydrochloride] was tested, and the IC50 was 109 nM. Molecule `C=CCN(C)Cc1ccc(-c2ccc(C(=O)CCC=C(C)C)cc2)cc1` [Compound 39, 4'-[(allylmethylamino)methyl]-4-biphenylyl 4-methyl-3-pentenyl ketone] has an IC50 of 25.9 nM. With `C=CCN(C)Cc1ccc(-c2ccc(C(=O)c3cccc4ccccc34)cc2)cc1` [Compound 22, 4'-[(Allylmethylamino)methyl]-4-biphenylyl 1-naphthyl ketone hydrochloride] the IC50 was 434 nM. Work on `C=CCN(C)Cc1ccc(-c2ccc(C(=O)CCCCC)cc2)cc1` [Compound 38, 4'-[(allylmethylamino)methyl]-4-biphenylyl pentyl ketone hydrochloride] yielded an IC50 of 62.6 nM. Work on `C=CCN(C)Cc1ccc(-c2ccc(C(=O)CCCCCCCCO)cc2)cc1` [Compound 40, 4'-[(allylmethylamino)methyl]-4-biphenylyl 8-hydroxyoctyl ketone fumarate] yielded an IC50 of 17.8 nM. In the case of `C=CCN(C)C(C)c1ccc(-c2ccc(C(=O)c3ccccc3)cc2)cc1` (racemic) [Compound 18, rac-4'-[1-(Allylmethylamino)ethyl]-4-biphenylyl phenyl ketone hydrochloride], the IC50 is reported as 90 nM. Molecule `C=CCN(C)Cc1ccc(-c2ccc(C(=O)c3ccc(F)cc3F)cc2)cc1` [Compound 31, 2,4-difluorophenyl 4'-[(allylmethylamino)methyl]-4-biphenylyl ketone] has an IC50 of 21.2 nM. For `C=CCN(C)Cc1ccc(-c2ccc(C(=O)c3ccc(F)cc3)cc2)cc1` [Compound 15, 4'-[(Allylmethylamino)methyl]-4-biphenylyl p-fluorophenyl ketone hydrochloride], the IC50 was 100 nM.

Same assay, conditions: cell-free extract, pH 6.9, 30° C., 1 hour
In the case of `Cc1ccccc1C(=O)c1ccc(-c2ccc(CN(C)C)cc2)cc1` [Compound 32], the IC50 is reported as 0/03.

Same assay, conditions: cell-free extract, pH 6.9, 30° C., 1 hour; read-out: IC50 (converted)
Work on `CN(C)C(C)(C)c1ccc(-c2ccc(C(=O)c3ccccc3)cc2)cc1` [Compound 9, 4'-[1-(dimethylamino)-1-methylethyl]-4-biphenylyl phenyl ketone hydrochloride] yielded an IC50 of 2500 nM. For `CN(C)Cc1ccc(-c2ccc(C(=O)c3ccc4ccccc4c3)cc2)cc1` [Compound 13, 4'-[(Dimethylamino)methyl]-4-biphenylyl 2-naphthyl ketone hydrochloride], the IC50 was 522 nM. Molecule `CNCc1ccc(-c2ccc(C(=O)c3ccccc3)cc2)cc1` [Compound 26, 4'-[(Methylamino)methyl]-4-biphenylyl phenyl ketone hydrochloride] has an IC50 of 592 nM. `CN(C)Cc1ccc(-c2ccc(C(=O)c3ccc(Cl)cc3Cl)cc2)cc1` [Compound 4, 2,4-dichlorophenyl 4'-[(dimethylamino)methyl]-4-biphenyl ketone hydrochloride] showed an IC50 of 200 nM. With `COc1ccccc1C(=O)c1ccc(-c2ccc(CN(C)C)cc2)cc1` [Compound 29] the IC50 was 550 nM. In the case of `CC(c1ccc(-c2ccc(C(=O)c3ccccc3)cc2)cc1)N(C)C` (racemic) [Compound 2, rac-4'-[1-(dimethylamino)ethyl]-4-biphenylyl phenyl ketone hydrochloride], the IC50 is reported as 219 nM. `CN(C)Cc1ccc(-c2ccc(C(=O)c3ccc(Cl)cc3Cl)cc2Cl)cc1` [Compound 7] gave an IC50 of 239 nM. `CN(C)Cc1ccc(-c2ccc(C(=O)c3ccc(F)cc3)cc2)cc1` [Compound 3, 4'-[(Dimethylamino)methyl]-4-biphenyl p-fluorophenyl ketone hydrochloride] was tested, and the IC50 was 300 nM. Molecule `CCN(C)Cc1ccc(-c2ccc(C(=O)c3ccccc3)cc2)cc1` [Compound 25, 4'-[Ethylmethylamino)methyl]-4-biphenylyl phenyl ketone hydrochloride] has an IC50 of 137 nM. Molecule `C=CCN(C)Cc1ccc(-c2ccc(C(=O)c3ccccc3C)cc2)cc1` [Compound 34] has an IC50 of 50.6 nM. Work on `C=CCN(C)Cc1ccc(-c2ccc(C(=O)c3ccc(Cl)cc3Cl)cc2)cc1` [Compound 16, 2,4-dichlorophenyl 4'-(allylmethylamino)-methyl]-4-biphenylyl ketone hydrochloride] yielded an IC50 of 39 nM. `CN(C)Cc1ccc(-c2ccc(C(=O)CCCCCCCCO)cc2)cc1` [Compound 37, 4'-[(dimethylamino)methyl]-4-biphenylyl 8-hydroxyoctyl ketone hydrochloride] showed an IC50 of 42.1 nM. `CN(C)Cc1ccc(-c2ccc(C(=O)c3ccc(F)cc3F)cc2)cc1` [Compound 30] was tested, and the IC50 was 82.5 nM. In the case of `CN(C)Cc1ccc(-c2ccc(C(=O)c3ccc(C#N)cc3)cc2)cc1` [Compound 11, p-[[(4'-[(Dimethylamino)methyl]-4-biphenylyl]carbonyl]-benzonitrile hydrochloride], the IC50 is reported as 170 nM. `C=CCN(C)Cc1ccc(-c2ccc(C(=O)c3ccc([N+](=O)[O-])cc3)cc2)cc1` [Compound 17] was tested, and the IC50 was 41.4 nM. For `CN(C)Cc1ccc(-c2ccc(C(=O)c3ccc(Br)cc3Br)cc2)cc1` [Compound 27], the IC50 was 50.7 nM. In the case of `CCCCCC(=O)c1ccc(-c2ccc(CN(C)C)cc2)cc1` [Compound 35, 4'-[(dimethylamino)-methyl]-4-biphenylyl pentyl ketone hydrochloride], the IC50 is reported as 89.6 nM. For `CN(C)Cc1ccc(-c2ccc(C(=O)c3ccccc3)cc2)cc1` [Compound 1, 4'-[(dimethylamino)methyl]-4-biphenylyl phenyl ketone hydrochloride], the IC50 was 284 nM. With `C=CCN(C)Cc1ccc(-c2ccc(C(=O)c3ccccc3C)cc2)cc1` [Compound 33] the IC50 was 33.8 nM. With `CC(C)=CCCC(=O)c1ccc(-c2ccc(CN(C)C)cc2)cc1` [Compound 36, 4'-[(dimethylamino)methyl]-4-biphenylyl 4-methyl-3-pentenyl ketone hydrochloride] the IC50 was 8.38 nM. `CN(C)Cc1ccc(-c2ccc(C(=O)c3ccc([N+](=O)[O-])cc3)cc2)cc1` [Compound 5, 4'-[(Dimethylamino)methyl]-4-biphenylyl p-nitrophenyl ketone hydrochloride] was tested, and the IC50 was 290 nM. In the case of `C=CCN(C)Cc1ccc(-c2ccc(C(=O)c3ccc(Br)cc3Br)cc2)cc1` [Compound 28], the IC50 is reported as 40.1 nM. Work on `CN(C)Cc1ccc(-c2ccc(C(=O)c3cccc4ccccc34)cc2)cc1` [Compound 12, 4'-[(Dimethylamino)methyl]-4-biphenylyl 1-naphthyl ketone hydrochloride] yielded an IC50 of 771 nM. In the case of `CN(C)Cc1ccc(-c2ccc(C(=O)c3ccc(I)cc3)cc2)cc1` [Compound 10, 4'-[(Dimethylamino)methyl]-4-biphenylyl p-iodophenyl ketone hydrochloride], the IC50 is reported as 98.4 nM. `CN(C)Cc1ccc(-c2ccc(C(=O)c3ccc(Br)cc3)cc2)cc1` [Compound 6, p-Bromophenyl 4'-[(dimethylamino)methyl]-4-biphenylyl ketone hydrochloride] was tested, and the IC50 was 102 nM. `C=CCN(C)Cc1ccc(-c2ccc(C(=O)c3ccc(Cl)cc3Cl)cc2Cl)cc1` [Compound 21] gave an IC50 of 58.5 nM. In the case of `CN(C)Cc1ccc(-c2ccc(C(=O)c3ccc([N+](=O)[O-])cc3Cl)cc2)cc1` [Compound 8, 2-Chloro-4-nitrophenyl 4'-[(dimethylamino)methyl]-4-biphenyl ketone hydrochloride], the IC50 is reported as 111 nM.
